{"source": "patent US20230058733A1", "about": "“OGA INHIBITOR COMPOUNDS” (JANSSEN PHARMACEUTICA NV, priority 2019, published 2023)", "key": {"hOGA": {"molecular_target": "T1, hOGA (Homo sapiens, UniProt O60502)", "T1 construct": "HEK293 cells inducible for P301L mutant human Tau (isoform 2N4R) were established at Janssen; endogenous in cells; host or cells: HEK293 cells inducible for P301L mutant human Tau (2N4R)", "T1 sequence (O60502 1-916)": "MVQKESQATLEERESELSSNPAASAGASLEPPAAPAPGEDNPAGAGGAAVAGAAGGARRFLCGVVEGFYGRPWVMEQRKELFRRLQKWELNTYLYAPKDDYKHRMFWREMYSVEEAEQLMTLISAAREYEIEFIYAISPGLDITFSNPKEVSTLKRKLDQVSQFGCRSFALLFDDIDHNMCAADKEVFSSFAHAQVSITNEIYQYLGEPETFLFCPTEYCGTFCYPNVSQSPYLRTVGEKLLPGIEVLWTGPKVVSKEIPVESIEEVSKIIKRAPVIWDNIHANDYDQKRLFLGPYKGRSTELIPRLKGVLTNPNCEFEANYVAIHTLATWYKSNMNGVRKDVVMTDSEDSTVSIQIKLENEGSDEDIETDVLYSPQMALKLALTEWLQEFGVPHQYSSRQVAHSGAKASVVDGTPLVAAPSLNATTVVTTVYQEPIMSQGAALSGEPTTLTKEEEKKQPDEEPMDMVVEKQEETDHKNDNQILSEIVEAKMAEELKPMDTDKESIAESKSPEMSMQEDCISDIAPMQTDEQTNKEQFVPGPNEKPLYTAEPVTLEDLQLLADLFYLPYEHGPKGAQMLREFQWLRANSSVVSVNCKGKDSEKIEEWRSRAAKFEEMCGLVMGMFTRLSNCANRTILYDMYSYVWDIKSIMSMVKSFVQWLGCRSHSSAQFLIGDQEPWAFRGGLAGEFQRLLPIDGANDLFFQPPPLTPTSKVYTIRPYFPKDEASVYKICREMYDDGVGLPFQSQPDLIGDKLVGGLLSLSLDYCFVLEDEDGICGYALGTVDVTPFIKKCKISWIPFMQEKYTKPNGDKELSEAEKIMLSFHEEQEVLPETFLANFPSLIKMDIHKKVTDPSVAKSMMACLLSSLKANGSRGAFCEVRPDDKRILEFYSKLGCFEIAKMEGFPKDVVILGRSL", "assay": "OGA cellular assay (ICC detection of O-GlcNAcylated proteins in HEK293 cells inducible for P301L mutant human Tau)", "format": "cell-based", "conditions": "for EC50: HEK293 cells inducible for P301L mutant human Tau (2N4R), 6 hours incubation, O-GlcNAcylation readout at 488 nm, read-out: Cellular hOGA, pEC50 (converted); for Emax: HEK293 cells inducible for P301L mutant human Tau, maximum defined by Thiamet G at 200 uM", "experimental": "HEK293 cells inducible for P301L mutant human Tau (isoform 2N4R) were established at Janssen. Thiamet-G was used for both plate validation (high control) and as reference compound (reference EC50 assay validation). OGA inhibition is evaluated through the immunocytochemical (ICC) detection of O-GlcNAcylated proteins by the use of a monoclonal antibody (CTD110.6; Cell Signaling, #9875) detecting 0-GlcNAcylated residues as previously described (Dorfmueller et al. 2010 Chemistry & biology, 17:1250). Inhibition of OGA will result in an increase of O-GlcNAcylated protein levels resulting in an increased signal in the experiment. Cell nuclei are stained with Hoechst to give a cell culture quality control and a rough estimate of immediate compounds toxicity, if any. ICC pictures are imaged with a Perkin Elmer Opera Phenix plate microscope and quantified with the provided software Perkin Elmer Harmony 4.1.\nCells were propagated in DMEM high Glucose (Sigma, #D5796) following standard procedures. 2 days before the cell assay cells are split, counted and seeded in Poly-D-Lysine (PDL) coated 96-wells (Greiner, #655946) plate at a cell density of 12,000 cells per cm^2 (4,000 cells per well) in 100 μl of Assay Medium (Low Glucose medium is used to reduce basal levels of GlcNAcylation) (Park et al. 2014 The Journal of biological chemistry 289:13519). At the day of compound test medium from assay plates was removed and replenished with 90[d of fresh Assay Medium. 10 μl of compounds at a 10 fold final concentration were added to the wells. Plates were centrifuged shortly before incubation in the cell incubator for 6 hours. DMSO concentration was set to 0.2%. Medium is discarded by applying vacuum. For staining of cells medium was removed and cells washed once with 100 μl D-PBS (Sigma, #D8537). From next step onwards unless other stated assay volume was always 50 μl and incubation was performed without agitation and at room temperature. Cells were fixed in 50 μl of a 4% paraformaldehyde (PFA, Alpha aesar, #043368) PBS solution for 15 minutes at room temperature. […] Before analysis samples were washed 2 times manually for 5 minutes in ICC base buffer.\nImaging is performed using Perkin Elmer Phenix Opera using a water 20× objective and recording 9 fields per well. Intensity readout at 488 nm is used as a measure of O-GlcNAcylation level of total proteins in wells. To assess potential toxicity of compounds nuclei were counted using the Hoechst staining. IC50-values are calculated using parametric non-linear regression model fitting. As a maximum inhibition Thiamet G at a 200 uM concentration is present on each plate. In addition, a concentration response of Thiamet G is calculated on each plate."}, "[1]": {"molecular_target": "T2, recombinant human Meningioma Expressed Antigen 5 (MGEA5), also referred to as O-GlcNAcase (OGA) (Homo sapiens, UniProt O60502)", "T2 construct": "Full length OGA enzyme was purchased at OriGene (cat #TP322411); purchased OriGene TP322411", "T2 sequence (O60502 1-916)": "T1 sequence (O60502 1-916)", "assay": "OGA biochemical assay (inhibition of FM-GlcNAc hydrolysis, fluorescence)", "conditions": "full length OGA 2 nM, FM-GlcNAc 100 uM; for IC50: pH 7.2, 6 h at room temperature, read-out: Enzymatic hOGA, pIC50 (converted); for Emax: relative to high and low controls, read-out: Enzymatic Emax (%)", "description": "The assay is based on the inhibition of the hydrolysis of fluorescein mono-β-D-N-Acetyl-Glucosamine (FM-GlcNAc) (Mariappa et al. 2015, Biochem J 470:255) by the recombinant human Meningioma Expressed Antigen 5 (MGEA5), also referred to as O-GlcNAcase (OGA). The hydrolysis FM-GlcNAc (Marker Gene technologies, cat #M1485) results in the formation of […] and fluorescein. The fluorescence of the latter can be measured at excitation wavelength 485 nm and emission wavelength 538 nm. An increase in enzyme activity results in an increase in fluorescence signal. Full length OGA enzyme was purchased at OriGene (cat #TP322411). The enzyme was stored in 25 mM Tris.HCl, pH 7.3, 100 mM glycine, 10% glycerol at −20° C. Thiamet G and GlcNAcStatin were tested as reference compounds (Yuzwa et al. 2008 Nature Chemical Biology 4:483; Yuzwa et al. 2012 Nature Chemical Biology 8:393). The assay was performed in 200 mM Citrate/phosphate buffer supplemented with 0.005% Tween-20. 35.6 g Na2HPO4 2 H2O (Sigma, #C0759) were dissolved in 1 L water to obtain a 200 mM solution. 19.2 g citric acid (Merck, #1.06580) was dissolved in 1 L water to obtain a 100 mM solution. pH of the sodiumphosphate solution was adjusted with the citric acid solution to 7.2. The buffer to stop the reaction consists of a 500 mM Carbonate buffer, pH 11.0. 734 mg FM-GlcNAc were dissolved in 5.48 mL DMSO to obtain a 250 mM solution and was stored at −20° C. OGA was used at a 2 nM concentration and FM-GlcNAc at a 100 uM final concentration. Dilutions were prepared in assay buffer.\n50 nl of a compound dissolved in DMSO was dispensed on Black Proxiplate TM 384 Plus Assay plates (Perkin Elmer, #6008269) and 3 μl fl-OGA enzyme mix added subsequently. Plates were pre-incubated for 60 min at room temperature and then 2 μl FM-GlcNAc substrate mix added. […] Plates were briefly centrifuged for 1 min at 1000 rpm and incubate at room temperature for 6 h. To stop the reaction 5 μl STOP buffer were added and plates centrifuge again 1 min at 1000 rpm. Fluorescence was quantified in the Thermo Scientific Fluoroskan Ascent or the PerkinElmer EnVision with excitation wavelength 485 nm and emission wavelength 538 nm.\nFor analysis a best-fit curve is fitted by a minimum sum of squares method. From this an IC50 value and Hill coefficient was obtained. High control (no inhibitor) and low control (saturating concentrations of standard inhibitor) were used to define the minimum and maximum values."}}, "data": [{"compound": "Cc1ccnc(C(C)C)c1Nc1nncc2c1ccn2CC(=O)N(C)C", "note": "[Co. No. 2]", "values": [{"measurement": "EC50", "setting": "hOGA", "value": 138, "unit": "nM"}, {"measurement": "Emax", "setting": "hOGA", "value": 138, "unit": "%"}, {"measurement": "IC50", "setting": "[1]", "value": 21.4, "unit": "nM"}, {"measurement": "Emax", "setting": "[1]", "value": 98, "unit": "%"}]}, {"compound": "Cc1cc(C)c(Nc2nncc3c2ccn3CC(=O)N(C)C)c(C)c1", "note": "[Co. No. 5]", "values": [{"measurement": "EC50", "setting": "hOGA", "value": 21.4, "unit": "nM"}, {"measurement": "Emax", "setting": "hOGA", "value": 92, "unit": "%"}, {"measurement": "IC50", "setting": "[1]", "value": 4.27, "unit": "nM"}, {"measurement": "Emax", "setting": "[1]", "value": 99, "unit": "%"}]}, {"compound": "Cc1cc(Cl)cc(C(F)(F)F)c1Nc1nncc2c1ccn2CC(=O)N(C)C", "note": "[Co. No. 4]", "values": [{"measurement": "EC50", "setting": "hOGA", "value": 74.1, "unit": "nM"}, {"measurement": "Emax", "setting": "hOGA", "value": 63, "unit": "%"}, {"measurement": "IC50", "setting": "[1]", "value": 19.1, "unit": "nM"}, {"measurement": "Emax", "setting": "[1]", "value": 100, "unit": "%"}]}, {"compound": "Cc1cc(OC(F)(F)F)cc(Cl)c1Nc1nncc2c1ccn2CC(=O)N(C)C", "note": "[Co. No. 3]", "values": [{"measurement": "EC50", "setting": "hOGA", "value": 15.8, "unit": "nM"}, {"measurement": "Emax", "setting": "hOGA", "value": 108, "unit": "%"}, {"measurement": "IC50", "setting": "[1]", "value": 6.31, "unit": "nM"}, {"measurement": "Emax", "setting": "[1]", "value": 101, "unit": "%"}]}, {"compound": "Cc1cc(C(F)(F)F)cc(C)c1Nc1nncc2c1ccn2CC(=O)N(C)C", "note": "[Co. No. 1]", "values": [{"measurement": "EC50", "setting": "hOGA", "value": 24, "unit": "nM"}, {"measurement": "Emax", "setting": "hOGA", "value": 68, "unit": "%"}, {"measurement": "IC50", "setting": "[1]", "value": 15.1, "unit": "nM"}, {"measurement": "Emax", "setting": "[1]", "value": 101, "unit": "%"}]}]}
